# Measurements reported in paper PMC4530474, “Carbohydrate scaffolds as glycosyltransferase inhibitors with in vivo antibacterial activity” (Nature Communications, 2015).
# Where “and” joins values, the source holds several entries; their conditions need not be identical. Identical values can stand only once. Entries after “also recorded” stand apart in the source; their conditions may differ.
# Columns and labels:
# [1] = system: Gram-positive bacteria; assay: MIC of disaccharide library; type: cell-based
# Text: In the second stage, we used the disaccharide structure–activity relationship information to design more synthetically feasible and smaller monosaccharide molecules. A versatile solid-phase method was developed to rapidly synthesize the representatives of three different core chemotypes M1 to M3, starting from a single monosaccharide building block, that is, 1,5-anhydro-galactitol (see Fig. 3). Chemotype M1 explored the option of using only two of the hydrophobic elements, whereas the other two, M2 and M3, used a benzimidazole moiety as the third hydrophobic group (Fig. 3).
# [2] = system: S. aureus; assay: MIC of disaccharide and monosaccharide libraries (Figures 2, 3); conditions: Staphylococcus aureus
# Procedure: (§1) Bacteria were cultured in Brain–Heart Infusion (Bacto laboratories, Cat. no. CM1135B) at 37 °C overnight. […] MICs were determined visually as the lowest concentration showing no visible growth.
# [3] = system: S.aureus MRSA; assay: MIC, chemotype M3 library (Supplementary Table 1); conditions: Staphylococcus aureus
# Procedure: as §1
# [4] = system: S. aureus MSSA, ATCC 25923; assay: MIC determination (broth microdilution); conditions: Staphylococcus aureus
# Procedure: as §1
# [5] = system: S. aureus NRS 17—GISA; assay: MIC determination (broth microdilution); conditions: Staphylococcus aureus, NRS17
# Procedure: as §1
# [6] = system: S. aureus (Newbould 305, ATCC 29740); assay: Mouse mammary gland infection (mastitis) model
# Procedure: Each compound was instilled at different doses into the teat canal of both contralateral glands from the fourth mammary gland pair of lactating mice at 4 h after bacterial inoculation.
# The procedure for mouse mammary gland infection has been recently described[64]. CD-1 lactating mice were utilized 12–14 days after giving birth, with pups weaned 1–2 h before bacterial inoculation of the mammary glands. Inoculation of both left (L4) and right (R4) glands of the fourth abdominal mammary gland pair of anesthetized mice with 150 c.f.u. of S. aureus, was done using 32-gauge syringes (blunt needle). The antimicrobial formulation was instilled into the mammary gland of anesthetized mice at 4 h after bacterial inoculation, followed by i.p. administration of postoperative analgesic Buprecare. […] Bacterial c.f.u. counts were obtained after quantification of serial logarithmic dilutions of mammary gland homogenates on TSA. The detection limit (DL) was 1.7 log10 c.f.u. g^−1 gland weight (for more details see Supplementary Methods).
# The actual colony forming units (CFU) of the inocula was confirmed by overnight culture of a serial logarithmic dilution on tryptic soy agar (TSA; Oxoid Limited) plates.
# [7] = system: E. faecalis; assay: MIC, chemotype M3 library (Supplementary Table 1); conditions: Enterococcus faecalis
# Procedure: as §1
# [8] = system: E. faecium ATCC 35667; assay: MIC determination (broth microdilution); conditions: Enterococcus faecium, ATCC35667
# Procedure: as §1
# [9] = system: S. aureus VRS 1; assay: MIC determination (broth microdilution); conditions: Staphylococcus aureus, VRS1
# Procedure: as §1
# [10] = system: S. pneumoniae MDR, ATCC 700677; assay: MIC determination (broth microdilution); conditions: Streptococcus pneumoniae, ATCC700677
# Procedure: as §1
# [11] = In vivo maximum tolerated dose, i.p.; conditions: mice
# Procedure: In vivo Maximum Tolerated Dose
# (§2) Compound dissolved in 0.05% Tween 80/0.9% NaCl were each administered IP at doses of 20, 60 and
# (§3) 100 mg kg-1 to groups of 2 CD-1 (Crl.) derived male mice weighing 22 ± 2 g. The animals were observed
# (§4) for presence of acute toxic symptoms (mortality, convulsions, tremors, muscle relaxation, sedation,
# (§5) etc.) and autonomic effects (diarrhea, salivation, lacrimation, vasodilation, piloerection, etc.) during
# the first 30 min post-dosing.
# (§6) For the IV studies, compounds were dissolved in 10% DMSO/0.1 M HCl/1% Tween 80/5% Glucose were
# (§7) prepared at a dose of 4 mg kg-1 and were administered intravenously once to groups of 3 CD-1 (Crl.)
# (§8) derived male mice weighing 22 ± 2 g, and monitored and analyzed similar to the IP study during the
# (§9) first 5 min post dosing (IV). In addition, Group 3 and Group 5 were administered intravenously with
# (§10) compounds at 4 mg kg-1 for 2 times (T=0 and T=170 minutes) and the autonomic signs and neurological
# (§11) changes were observed during the first 5 min after the first and the second dose. Mortality was also
# [12] = system: S. aureus mMRSA, DRSA, ci; assay: MIC determination (broth microdilution); conditions: Staphylococcus aureus
# Procedure: as §1
# [13] = system: S.aureus MSSA; assay: MIC, chemotype M3 library (Supplementary Table 1); conditions: Staphylococcus aureus
# Procedure: as §1
# [14] = system: E. faecium VanA, ATCC 51559; assay: MIC determination (broth microdilution); conditions: Enterococcus faecium, ATCC51559
# Procedure: as §1
# [15] = in vivo; conditions: male, Sprague Dawley, rat, iv, 3.5 mg/kg
# Procedure: In vitro metabolic stability studies
# (§12) Compounds (1 μM) were incubated at 37 °C with human or mouse liver microsomes. The reaction was
# (§13) initiated by the addition of an NADPH-regenerating system and quenched at various time points over
# (§14) the incubation period by the addition of acetonitrile. Additional samples co-activated by NADP and
# (§15) UDPGA (the co-factor for glucuronidation), were included in the incubation for the qualitative
# (§16) assessment of the potential for glucuronide formation. The relative loss of parent compound and
# (§17) formation of metabolic products was determined by LC/MS using the Q-TOF instrument. The studies
# (§18) were conducted by a contract research organization (Centre for Drug Candidate Organization, Monash
# University, Melbourne, Australia).
# In vivo efficacy and PK studies
# (§19) The in vivo pharmacokinetics of the compounds were studies in overnight-fasted male Sprague Dawley
# (§20) Rats had access to water ad libitum throughout the pre- and post-dose
# (§21) sampling period, and access to food was re-instated 4 hours post-dose. Compounds were
# (§22) administrated IV as a 10 minute constant rate infusion (1.0 mL per rat, n=2 rats). Samples of arterial
# (§23) Arterial blood was collected directly into
# (§24) borosilicate vials (at 4 °C) containing heparin, Complete (a protease inhibitor cocktail), potassium
# (§25) fluoride and EDTA to minimize potential for ex vivo degradation. Once collected, blood samples were
# (§26) centrifuged, supernatant plasma was removed, and plasma concentration of compounds were
# (§27) determined by LCMS (LLQ 0.0014 M). The studies were conducted by a contract research organization
# (§28) (Centre for Drug Candidate Organization, Monash University, Melbourne, Australia).
# [16] = system: S. aureus (Smith); assay: Mouse model of septicemia
# Procedure: In vivo Septicaemia mouse model
# Groups of 10 male CD-1 (Crl.) derived mice weighing 22 ± 2 g were used. The mice were inoculated
# of brain-heart infusion broth containing 5% mucin. Compounds were dissolved in 0.05% Tween
# 80/0.9% NaCl. Vehicle and compounds at 50 and 100 mg kg-1 were each administered intraperitoneally
# 10 and/or 180 minutes after S. aureus (Smith) challenge. Ampicillin (0.1 mg kg-1, IP, as positive control
# agent) was administered to test animals at 1 h after the inoculation. Mortality was monitored once
# For the corresponding IV studies compounds at 4 mg kg-1 were dissolved in 10% DMSO/0.1 M HCl/1%
# Tween 80/5% glucose, and compounds were each administered intravenously at 10 min and/or 180
# min after S. aureus (Smith) challenge.
# [17] = system: E. faecalis VanA, ci; assay: MIC determination (broth microdilution); conditions: Enterococcus faecalis
# Procedure: as §1
# [18] = mouse liver microsomes, 1 μM, 37 °C
# Procedure: In vitro metabolic stability studies
# as §12, §13, §14, §15, §16, §17, §18
# University, Melbourne, Australia).
# In vivo efficacy and PK studies
# as §19, §20, §21, §22, §23, §24
# (§29) fluoride and EDTA to minimize potential for ex vivo degradation. Once collected, blood samples were […]
# determined by LCMS (LLQ 0.0014 M). […]
# [19] = system: S. aureus NRS 1—GISA; assay: MIC determination (broth microdilution); conditions: Staphylococcus aureus, NRS1
# Procedure: as §1
# [20] = In vivo pharmacokinetics, i.v. administration to male rats; conditions: Sprague Dawley, rat, iv, 3.5 mg kg^-1
# Procedure: In vitro metabolic stability studies
# as §12, §13, §14, §15, §16, §17, §18
# University, Melbourne, Australia).
# In vivo efficacy and PK studies
# as §19, §20, §21, §22, §23, §24, §25, §26, §27, §28
# [21] = in vivo; conditions: male, CD-1, mouse, ip
# Procedure: In vivo Maximum Tolerated Dose
# as §2, §3, §4, §5
# the first 30 min post-dosing.
# as §6, §7, §8, §9, §10, §11
# [22] = system: Human red blood cells; conditions: male, 1 h
# Procedure: Human male red blood cells were isolated from fresh whole blood sample and washed with phosphate
# buffered saline (PBS) 3 times. Red blood cells were diluted 1/200 with PBS for the haemolysis assay.
# Each compound was assayed at 4 different concentrations in quadruplicate. Control items (100 μM
# tamoxifen and 1% triton X100) were also assayed in quadruplicate. Background was determined with
# 1% DMF. The assay was performed for 1 h at 37 °C. The samples were then centrifuged for 10 min at
# 4°C at 1000 × g, the supernatant was recovered and absorption was measured at 415 nm. Results are
# expressed as the % haemolysis compared to 1% triton X100 after background was subtracted, and
# fitting dose response curve with Prism (GraphPad) to extract HC50 values.
# [23] = target: S. aureus MGT (Staphylococcus aureus, UniProt Q99T05); assay: Inhibition of glycosyltransferase, continuous fluorescence assay with dansyl-Lys lipid II
# Chain of S. aureus MGT (Q99T05 whole entry): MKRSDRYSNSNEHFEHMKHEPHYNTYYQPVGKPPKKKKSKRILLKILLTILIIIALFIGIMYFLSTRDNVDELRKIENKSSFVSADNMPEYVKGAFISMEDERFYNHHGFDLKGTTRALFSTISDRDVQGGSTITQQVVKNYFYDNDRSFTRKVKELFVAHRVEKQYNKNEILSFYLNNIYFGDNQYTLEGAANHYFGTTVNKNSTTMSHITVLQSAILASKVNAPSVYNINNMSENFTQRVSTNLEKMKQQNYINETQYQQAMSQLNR
# Text: Confirmative dose–response assays were subsequently conducted with continuous fluorescent activity assay using a dansyl-labelled, lysine-lipid II substrate[47]. […] The data were fitted to a simple saturation model of inhibitor binding to a single site, from which IC50 values were extracted.
# [24] = microsomes
# Procedure: In vitro metabolic stability studies
# as §12, §13, §14, §15, §16, §17, §18
# University, Melbourne, Australia).
# In vivo efficacy and PK studies
# as §19, §20, §21, §22, §23, §24, §29
# determined by LCMS (LLQ 0.0014 M). […]
# [25] = system: E. faecium VanB; assay: MIC, chemotype M3 library (Supplementary Table 1); conditions: Enterococcus faecium
# Procedure: as §1
# [26] = system: E. faecalis ATCC 29212; assay: MIC determination (broth microdilution); conditions: Enterococcus faecalis, ATCC29212
# Procedure: as §1
# [27] = system: PBP1 from C. difficile; assay: Glycosyltransferase activity by HPLC, NBD-lipid II; conditions: 200 μg ml^−1, NBD-lipid II
# Procedure: (§30) We then monitored the transformation of fluorescent NBD-lipid II by two different GT enzymes, PBP1 from Clostridium difficile and MGT from S. aureus.
# (§31) 25 °C. The reaction was initiated by addition of glycosyltransferease (2.5 µg mL-1) and terminated by
# (§32) The reaction mixtures were then analysed by a
# (§33) HPLC system (Hitachi) equipped with an anion-exchange column (5 μm, 4.6 × 250 mm, SAX1, Supelco
# (§34) Co.) using a linear gradient of NH4OAc/MeOH (20 mM to 1 M) at a flow rate of 1 mL min-1. The signals
# (§35) were detected with a fluorometer at λex = 355 nm and λem = 460 nm.
# [28] = system: E. faecium; assay: MIC, chemotype M3 library (Supplementary Table 1); conditions: Enterococcus faecium
# Procedure: as §1
# [29] = system: E. coli ATCC 25922; assay: MIC determination (broth microdilution); conditions: Escherichia coli, ATCC25922
# Procedure: as §1
# [30] = system: S. aureus Newbould 305; assay: MIC determination (Mueller-Hinton agar dilution); type: cell-based; conditions: Staphylococcus aureus
# Text: guidelines 23. […] In addition
# The animal experiments were
# To evaluate the dose-response
# [31] = rat, in vivo, iv
# Procedure: In vitro metabolic stability studies
# as §12, §13, §14, §15, §16, §17, §18
# University, Melbourne, Australia).
# In vivo efficacy and PK studies
# as §19, §20, §21, §22, §23, §24, §25, §26, §27, §28
# [32] = system: S. aureus MRSA, ATCC 43300; assay: MIC determination (broth microdilution); conditions: Staphylococcus aureus
# Procedure: as §1
# [33] = target: MGT from S. aureus (Staphylococcus aureus, UniProt Q99T05); assay: Glycosyltransferase activity by HPLC, NBD-lipid II; conditions: 200 μg ml^−1, NBD-lipid II
# Chain of MGT from S. aureus (Q99T05 whole entry): as above
# Procedure: as §30, §31, §32, §33, §34, §35
# [34] = system: bacterial PG biosynthesis in crude B. megaterium membrane; assay: In vitro PG biosynthesis, [14C]UDP-GlcNAc incorporation into lipid II and PG, TLC; conditions: for Accumulation of lipid II / Inhibit of PG: vs no antibiotic
# Text: To elucidate the mode of action of the inhibitors, we conducted various GT enzyme inhibition assays. […] This assay monitors [^14C]UDP-GlcNAc incorporation into lipid II and mature PG, in the presence of different concentrations of antibiotics[39]. Owing to the sequential nature of the glycosyltransfer and transpeptidation, it is not possible to determine at which step PG biosynthesis is blocked in this assay. The low concentration of lipid II can be detected by thin-layer chromatography (TLC) separation and subsequent phosphorimaging of pre-solubilized membranes, which was incubated with the cytoplasmic PG precursors UDP-MurNAc-pentapeptide and UDP-[^14C]GlcNAc[41][42].
# The cell-free particulate fraction of B. megaterium KM (ATCC13632), capable of catalysing the polymerization of PG from UPD-linked precursors was performed as described previously[61]. B. megaterium was grown in standard medium, harvested and washed with Tris-buffer by centrifugation. Resuspended bacteria were subjected to three freeze/thaw cycles (5 min dry ice, followed by 10 min at RT), homogenized by the glass homogenizer and centrifuged all at 4 °C, leaving most of the cell wall in the pellet. […] After separation, plates were dried, exposed to phosphorimaging screen (1 week), scanned by Typhoon 8600 calculating the integrated density value of each band on silica gel. Changes of PG or lipid II were calculated as a percentage from negative control (for more details see Supplementary Methods).
# Inhibition of Lipid II and peptidoglycan biosynthesis
# The cell-free particulate fraction of Bacillus megaterium KM (ATCC13632), capable of catalysing the
# polymerisation of PG from UPD-linked precursors was performed as described previously 19 with some
# modification. Bacillus megaterium was grown in the medium containing tryptone (Difco-Bacto), 1%
# the pH to 7.2. Bacteria were harvested when the density had reached to 0.4 mg dry weight mL-1 and
# washed in the buffer 0.05 M Tris-HCl (pH 7.8) containing 10 mM MgCl2 by centrifugation at 6,000 x g
# for 10 min at 4 °C. All subsequent manipulations were carried out as close to 0 °C as possible.
# bacteria were resuspended in the same buffer at a density of 50 mg dry weight ml-1. Then the bacteria
# were subjected to three freeze/thaw cycles (dry ice for 5 min followed by RT for 10 min).
# freeze/thaw cycles, bacteria were homogenized by using the glass homogenizer at 4 °C (10 min × 2).
# The broken cell suspension was centrifuged at 6,000 x g for 10 min at 4 °C. The supernatant which
# contained the unbroken cells and the majority of the cell walls was kept for further centrifugation.
# [35] = system: E.coli; assay: MIC, chemotype M3 library (Supplementary Table 1); conditions: Escherichia coli
# Procedure: as §1
# [36] = system: S.aureus SG511; conditions: no reference given; cited from earlier work
# [37] = system: TG; conditions: at 0.1 μg ml^−1; no reference given; cited from earlier work
# [38] = system: staphylococci; design: method as in earlier work; conditions: cited from earlier work
# [39] = system: enterococci; design: method as in earlier work; conditions: cited from earlier work
# [40] = system: MR S. aureus, VRE; design: method as in PMID 10464005; conditions: cited from earlier work
# [41] = design: method as in earlier work; conditions: cited from earlier work
# [42] = mouse mastitis, intramammary, 4 h after inoculation
smiles,measurement,setting,value
NC(CC(=O)NC1C(CO)OCC(NC(=O)Nc2ccc(Cl)c(Cl)c2)C1OC1OC(CO)C(O)C(O)C1NC(=O)Nc1ccc(OC(F)(F)F)cc1)c1ccc(-c2ccccc2)cc1 (stereo not shown) [ACL19378],Activity in the presence of serum,[1]; 50% serum,limited activity
same,MIC,[1]; Gram-positive bacteria,~2 µg/mL
same,MIC,[2],2 µg/mL
O=C(Nc1ccc(Cl)c(C(F)(F)F)c1)NC1COC(CO)C(n2c(NCc3ccccc3)nc3cc(C(F)(F)F)ccc32)C1O (stereo not shown) [ACL20215],MIC,[3],2 µg/mL
same,MIC,[4],4 µg/mL
same,MIC,[5],8 µg/mL
same,Glands Cleared,[6]; 200 μg gland-1,0%
same,CFU/g gland,"[6]; 200 μg gland-1, 14 h post treatment",8.36 ± 1.05 log10
same,Glands Cleared,[6]; 400 μg gland-1,0%
same,CFU/g gland,"[6]; 400 μg gland-1, 14 h post treatment",7.77 ± 0.52 log10
same,Glands Cleared,[6]; 800 μg gland-1,0%
same,CFU/g gland,"[6]; 800 μg gland-1, 14 h post treatment",6.60 ± 1.42 log10
same,Glands Cleared,[6]; 1000 μg gland-1,0%
same,CFU/g gland,"[6]; 1000 μg gland-1, 14 h post treatment",5.72 ± 0.63 log10
same,PD50 (50% protective dose),"[6]; mouse mastitis, intramammary",">1,000 μg per gland"
same,PD100 (100% protective dose),"[6]; mouse mastitis, intramammary",">1,000 μg per gland"
same,ED2logc.f.u. (effective dose to reduce bacterial load by 2 × log(c.f.u.)),[6]; [42],730 μg per gland
same,ED4logc.f.u. (effective dose to reduce bacterial load by 4 × log(c.f.u.)),[6]; [42],"1,400 μg per gland"
same,MIC,[7],4 µg/mL
same,MIC,[8],16 µg/mL
same,MIC,[9],4 µg/mL
same,MIC,[10],4 µg/mL
same,Good tolerance up to (dose),[11],60 mg/kg
same,No mortality up to (dose),[11],100 mg/kg
same,Central/autonomic responses,[11]; 100 mg kg^−1,some minor changes to central/autonomic responses
same,MIC,[12],4 µg/mL
same,MIC,[13],4 µg/mL
same,MIC,[14],8 µg/mL
same,Vd,[15],97.2 L/kg
same,half-life,[15],27.2 h
same,clearance,[15]; Blood Cltotal,48.9 mL/min/kg
same,clearance,[15]; Plasma Cltotal,42.1 mL/min/kg
same,Survival 7 days,"[16]; i.p., 50 mg kg^−1, 10 min after inoculation",100%
same,Survival 7 days,"[16]; i.v., 4 mg kg^−1, 10 min after inoculation",10%
same,MIC,[17],8 µg/mL
same,Metabolic stability (degradation of the compound),[18],no degradation
same,MIC,[19],4 µg/mL
same,blood plasma ratio,[20],0.86
same,MTD at 72 h,[21],100 mg/kg
same,HC50,[22],74 µg/mL
same,IC50,[23],25.8 µM and 26 µM
same,Metabolic stability (in vitro),[24],No degradation
same,MIC,[25],16 µg/mL
same,MIC,[26],4 µg/mL
same,Inhibitory effect on GT (single concentration),[27],some inhibition; also recorded: only moderate effect
same,MIC,[28],16 µg/mL
same,MIC,[29],> 64 µg/mL
same,MIC,[30],2 µg/mL
same,% Dose in urine,[31],< LLQ
same,MIC,[32],4 µg/mL
same,Inhibitory effect on GT (single concentration),[33],some inhibitory effect
same,Accumulation of lipid II,"[34]; 10 μg ml-1, 3 h",-3.4 ± 12.7%
same,Inhibit of PG,"[34]; 10 μg ml-1, 3 h",0.5 ± 6.7%
same,Accumulation of lipid II,"[34]; 30 μg ml-1, 3 h",17.7 ± 7.1%
same,Inhibit of PG,"[34]; 30 μg ml-1, 3 h",7.9 ± 0.9%
same,Accumulation of lipid II,"[34]; 100 μg ml-1, 3 h",34.9 ± 0.6%
same,Inhibit of PG,"[34]; 100 μg ml-1, 3 h",17.0 ± 1.0%
same,Accumulation of lipid II,"[34]; 200 μg ml-1, 3 h",47.1 ± 2.8%
same,Accumulation of lipid II (in words),[34]; concentration not given,"accumulation of lipid II, although to a lesser extent"
same,MIC,[35],> 64 µg/mL
CC(=O)N[C@H]1[C@H](O[C@H]2[C@@H](OP(=O)(O)OC[C@@H](OCCC(C)CCCCC(C)(C)CCC(C)CCC(C)CCCC(C)C)C(=O)O)O[C@H](C(N)=O)[C@@](C)(O)[C@@H]2OC(N)=O)O[C@H](CO)[C@@H](O)[C@@H]1O (stereo partly shown) [Disaccharide-degradation product],MIC,[36],> 50 µg/mL
same,TG inhibition,[37],45%
CCCCCCCCCCCCO[C@H](COP(=O)(O)O[C@H]1O[C@H](C(N)=O)[C@@H](O)[C@H](NC(=O)Nc2ccc(OC(F)(F)F)cc2)[C@H]1O[C@@H]1O[C@H](CO)[C@H](O)[C@H](O)[C@H]1NC(=O)c1cccc(C(F)(F)F)c1)C(=O)O [TS30153],MIC,[38],3.12 µg/mL
same,MIC,[39],12.5 µg/mL
same,MIC,[40],3.1 – 12.5 μg ml^–1
same,In vivo activity,[41],no in vivo activity
"CN[C@H](CC(C)C)C(=O)N[C@H]1C(=O)N[C@@H](CC(N)=O)C(=O)N[C@H]2C(=O)N[C@H]3C(=O)N[C@H](C(=O)N[C@H](C(=O)O)c4cc(O)cc(O)c4-c4cc3ccc4O)[C@H](O)c3ccc(c(Cl)c3)Oc3cc2cc(c3O[C@@H]2O[C@H](CO)[C@@H](O)[C@H](O)[C@H]2O[C@H]2C[C@](C)(N)[C@H](O)[C@H](C)O2)Oc2ccc(cc2Cl)[C@H]1O [Vancomycin, reference compound]",MIC,[4],1 µg/mL
same,MIC,[5],8 µg/mL
same,MIC,[9],> 64 µg/mL
same,MIC,[10],2 µg/mL
same,MIC,[12],4 µg/mL
same,MIC,[14],> 64 µg/mL
same,MIC,[19],4 µg/mL
same,MIC,[32],1 µg/mL
same,Accumulation of lipid II,"[34]; 10 μg ml-1, 3 h",36.6 ± 6.2%
same,Inhibit of PG,"[34]; 10 μg ml-1, 3 h",12.8 ± 2.0%
same,Accumulation of lipid II,"[34]; 30 μg ml-1, 3 h",106.8 ± 33.4%
same,Inhibit of PG,"[34]; 30 μg ml-1, 3 h",15.0 ± 3.5%
same,Accumulation of lipid II,"[34]; 100 μg ml-1, 3 h",140.6 ± 30.8%
same,Inhibit of PG,"[34]; 100 μg ml-1, 3 h",21.3 ± 1.4%
same,Accumulation of lipid II,"[34]; 200 μg ml-1, 3 h",151.5 ± 23.1%
same,Inhibit of PG,"[34]; 200 μg ml-1, 3 h",36.0 ± 2.8%
